Molecules are shown by their SMILES. Structures can show the parent of a compound that is named as a salt.

Usually Ki stands for the dissociation constant of the complex between target and ligand, obtained from inhibition or displacement.

For the series, the target named is T1, cytochrome P450 2E1 (Rattus norvegicus, UniProt P05182).
T1 construct: from tissue
T1 sequence (P05182 whole entry): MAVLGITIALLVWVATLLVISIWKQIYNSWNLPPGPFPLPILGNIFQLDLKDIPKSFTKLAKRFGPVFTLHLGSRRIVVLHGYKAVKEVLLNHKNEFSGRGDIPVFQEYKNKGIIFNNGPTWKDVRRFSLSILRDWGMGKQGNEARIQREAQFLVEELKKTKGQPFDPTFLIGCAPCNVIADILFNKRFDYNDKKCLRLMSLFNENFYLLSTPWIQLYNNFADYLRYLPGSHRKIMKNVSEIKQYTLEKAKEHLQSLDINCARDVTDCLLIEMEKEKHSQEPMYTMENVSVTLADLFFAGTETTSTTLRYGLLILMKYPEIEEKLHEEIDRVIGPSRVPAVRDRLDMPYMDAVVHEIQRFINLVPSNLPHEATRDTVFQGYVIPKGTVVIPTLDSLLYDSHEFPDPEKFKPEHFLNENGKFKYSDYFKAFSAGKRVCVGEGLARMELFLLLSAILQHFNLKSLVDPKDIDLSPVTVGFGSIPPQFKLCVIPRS
Briefly: p-nitrophenol-hydroxylase activity determination (inhibiting constants). It counts as biochemical. Particulars: microsomal fraction of acetone-induced Sprague-Dawley rats; substrate p-nitrophenol; read-out: Ki (inhibiting constant). Here is the method: 8 male Sprague-Dawley rats were administered 5% acetone (v-v) in drinking water for 7 days, as described by M. H. Wang et al. in Arch. Biochem. Biophys. […] The preparation of the microsomal fraction is carried out based on the method published by Wang, P., Mason, P. S., Günderlich, F. G., in Arch. Biochem. Biophys.
p-Nitrophenol applies as a specific substrate for cytochrome P450 2E1.
`CCCCCCCCCCCCOP(=O)([O-])OCC[N+](C)(C)C` [Dodecylphosphorylcholine]: the Ki stood at 450 nM.
The same measure for `CCCCCCCCCCCCCCCCC(N)COP(=O)([O-])OCC[N+](C)(C)C` (racemic) [rac-1-O-phosphocholine-2-amino-octadecane-hydrochloride]: 2250 nM; for `CCCCCCCCCCCCCCCCOP(=O)([O-])OCC[N+](C)(C)C` [Hexadecylphosphocholine, reference compound]: 600 nM.

The values are drawn from patent US20090036400A1, “Pharmaceutical Preparations for Treating the Consequences of Alcohol Abuse, Hepatitis, Pancreatitis, Alzheimer's Disease, Parkinson's Disease, Diabetes, Toxic Kidney Disease, Reperfusion Damage, Arteriosclerosis, and as an Antidote Against Environmental Toxins and Medicinal Intoxication” (priority 2004, published 2009).
